Data published in PubChem BioAssay (NCI).
Several values for one entry are separate records, joined by “and”; a condition that tells them apart may be missing. Equal values may be shown once.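 48-hour exposure; five concentrations; linearly interpolated endpoints. At the GI50, growth is halved. Definition used: TGI = concentration required for complete inhibition of growth.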

Legend:
Assay in all cases: inhibition of tumour cell growth, NCI panel, 48 h
SNB-19 CNS = tested on: SNB-19 CNS
SF-268 CNS = tested on: SF-268 CNS
MOLT-4 leukemia = tested on: MOLT-4 leukemia
HL-60(TB) leukemia = tested on: HL-60(TB) leukemia
MALME-3M melanoma = tested on: MALME-3M melanoma
UACC-257 melanoma = tested on: UACC-257 melanoma
M14 melanoma = tested on: M14 melanoma
SK-MEL-28 melanoma = tested on: SK-MEL-28 melanoma
PC-3 prostate = tested on: PC-3 prostate
NCI/ADR-RES ovarian = tested on: NCI/ADR-RES ovarian

Structure (SMILES) | TGI (SNB-19 CNS) [µM] | TGI (SF-268 CNS) [µM] | TGI (MOLT-4 leukemia) [µM] | TGI (HL-60(TB) leukemia) [µM] | TGI (MALME-3M melanoma) [µM] | TGI (UACC-257 melanoma) [µM] | TGI (M14 melanoma) [µM] | TGI (SK-MEL-28 melanoma) [µM] | GI50 (SNB-19 CNS) [µM] | GI50 (SF-268 CNS) [µM] | GI50 (MOLT-4 leukemia) [µM] | GI50 (MALME-3M melanoma) [µM] | GI50 (UACC-257 melanoma) [µM] | GI50 (M14 melanoma) [µM] | GI50 (SK-MEL-28 melanoma) [µM] | GI50 (PC-3 prostate) [µM] | TGI (PC-3 prostate) [µM] | GI50 (NCI/ADR-RES ovarian) | TGI (NCI/ADR-RES ovarian) [µM] | GI50 (HL-60(TB) leukemia) [µM]
CC(=O)O[C@@H]1CC(C)C2CC2C2=C(C(O)OC2O)[C@@H]1C(C)CCC=C(C)C (stereo partly drawn) | 99.5 | 65.5 | 54.5 | 43.1 | 67 | 62.9 | > 100 | > 100 | – | – | – | – | – | – | – | – | – | – | – | –
O=Cc1[nH]c2ccccc2c1Br | 67.2 | 69.8 | 68.6 | 51.8 | 45.1 | 67.4 | 46.3 | 59.4 | – | – | – | – | – | – | – | – | – | – | – | –
Cc1cc2c(c(C#N)c1C)NC(=O)C(CC(=O)O)C2=O (stereo not drawn) | – | > 100 | > 100 | > 100 | > 100 | > 100 | > 100 | > 100 | – | – | – | – | – | – | – | – | – | – | – | –
CCCCC(=O)[O-].N.N.N.N.N.[Co+3].[O-][Cl+3]([O-])([O-])[O-] | > 100 | > 100 | > 100 | – | > 100 | > 100 | > 100 | > 100 | > 100 | > 100 | > 100 | > 100 | > 100 | > 100 | > 100 | – | – | – | – | –
Cc1ccc(C2=Nc3ccccc3NC(=O)C2)cc1 | > 100 | > 100 | > 100 | > 100 | > 100 | > 100 | > 100 | > 100 | – | – | – | – | – | – | – | – | – | – | – | –
O=[N+]([O-])c1cc(Br)cc2c1[nH]c1ccc(Br)cc12 | 70.8 | 45.9 | – | – | 66.3 | > 100 | > 100 | > 100 | 16.1 | 10.2 | – | 10.8 | 86 | 14.6 | 39 | 10.2 | > 100 | 6.09 µM | 62.7 | –
CCOC(=O)[C@@H](C)C[C@H](Cc1ccccc1)NC(=O)c1csc([C@@H](C[C@H](C(C)C)N(C)C(=O)[C@H](CCC(C)C)NC(=O)[C@H]2CCCCN2C)OC(C)=O)n1 | 10.7 | 5.87 | 5.1 | 0.0104 | – | 10.3 | – | – | < 0.00333 | 0.0205 | 0.0167 | – | 4.24 | – | – | < 0.00333 | 7.15 | 0.143 µM | 24 | < 0.00333
COc1ccc(C=NC23CC4CC(CC(C4)C2)C3)cc1 | > 100 | > 100 | > 100 | > 100 | > 100 | > 100 | > 100 | > 100 | – | – | – | – | – | – | – | – | – | – | – | –
CN(C)CCNC(=O)c1cc([N+](=O)[O-])ccn1 | > 100 | 70.7 | 49.3 | 46.4 | 28 | 29.8 | > 100 | > 100 | – | – | – | – | – | – | – | – | 61.4 | – | – | –
COc1ccc2nc(NC(=O)C(=O)CC(=O)c3ccc(Cl)cc3)sc2c1 | > 100 | > 100 | > 100 | > 100 | > 100 | > 100 | > 100 | > 100 | – | – | – | – | – | – | – | – | – | – | – | –
C=CCN=C1N=C(CC(=O)OCC)CS1 | > 100 | > 100 | – | > 100 | > 100 | > 100 | > 100 | > 100 | – | – | – | – | – | – | – | – | – | – | – | –
CC(=S)NNC(=O)c1ccncc1 | > 100 | > 100 | > 100 | > 100 | > 100 | > 100 | > 100 | > 100 | – | – | – | – | – | – | – | – | – | – | – | –
CC(=O)Oc1cccc2c1C(=O)C(Br)(Br)CCC2 | 25.2 | 42.7 | 13.8 | 6.51 | 5.59 | 25 | 8.67 | 25.7 | – | – | – | – | – | – | – | – | 16 | – | – | –
CN(C)CCCn1c2c3ccccc3ccc2c2oc(=O)c3ccccc3c21 | 29.2 | 13.4 | 5.19 | 93.9 | 29.8 | 19.1 | – | 12.3 | – | – | – | – | – | – | – | – | – | – | > 26.9 | –
C=C(CN1CCN(c2ccccc2F)CC1)c1ccc(C(=O)Nc2ccccc2N)cc1 | > 100 | > 100 | 4.86 | 2.87 | > 100 | 35.3 | – | 53.9 | 3.74 | 2.36 | 0.549 | 1.53 | 0.992 | – | 2.57 | 1.21 | 4.01 | – | – | 0.353
O=C(O)c1ccc([N+](=O)[O-])c2c(=O)c3ccccc3[nH]c12 | > 100 | > 100 | > 100 | > 100 | > 100 | > 100 | > 100 | – | – | – | – | – | – | – | – | – | – | – | – | –
CC(C)(C)C(=O)C(c1ccc(-c2cscn2)cc1)c1ccc(-c2cscn2)cc1 | > 69.7 | 97.5 | > 100 | > 100 | > 100 | > 100 | > 100 | > 100 | – | – | – | – | – | – | – | – | – | – | – | –
Cc1cc(-c2nc3ccc(O)cc3s2)ccc1N | > 100 | > 100 | > 100 | – | > 100 | > 100 | > 100 | > 100 | 46 | 35.6 | 27.1 | 82.8 | > 100 | 33.1 | 64.9 | 50.2 | > 100 | 91.1 µM | > 100 | –
CCOC(=O)C(Cc1c[nH]c2cc([N+](=O)[O-])ccc12)(NC(C)=O)C(=O)OCC | > 824 | > 1000 | – | – | > 1000 | > 1000 | – | > 1000 | 148 | 95.1 | 35.2 | 171 | – | > 931 | > 1000 | – | > 1000 | 92.2 µM and 331 µM | > 1000 | –
COc1cc(-c2cn(-c3ccc(Cl)cc3)c(=O)[nH]2)cc(OC)c1OC | > 100 | > 100 | 8.86 | – | > 100 | > 100 | > 100 | > 100 | > 100 | > 100 | 0.0199 | > 100 | > 100 | > 100 | > 100 | > 100 | > 100 | > 100 µM | > 100 | –
